# Laboratory results: patent publication US20190134005A1 (BioMarin Pharmaceutical Inc., priority 2016, published 2019)
# Biological target: T1, human CGT (Homo sapiens, UniProt Q16880)
# T1 sequence (Q16880 21-541): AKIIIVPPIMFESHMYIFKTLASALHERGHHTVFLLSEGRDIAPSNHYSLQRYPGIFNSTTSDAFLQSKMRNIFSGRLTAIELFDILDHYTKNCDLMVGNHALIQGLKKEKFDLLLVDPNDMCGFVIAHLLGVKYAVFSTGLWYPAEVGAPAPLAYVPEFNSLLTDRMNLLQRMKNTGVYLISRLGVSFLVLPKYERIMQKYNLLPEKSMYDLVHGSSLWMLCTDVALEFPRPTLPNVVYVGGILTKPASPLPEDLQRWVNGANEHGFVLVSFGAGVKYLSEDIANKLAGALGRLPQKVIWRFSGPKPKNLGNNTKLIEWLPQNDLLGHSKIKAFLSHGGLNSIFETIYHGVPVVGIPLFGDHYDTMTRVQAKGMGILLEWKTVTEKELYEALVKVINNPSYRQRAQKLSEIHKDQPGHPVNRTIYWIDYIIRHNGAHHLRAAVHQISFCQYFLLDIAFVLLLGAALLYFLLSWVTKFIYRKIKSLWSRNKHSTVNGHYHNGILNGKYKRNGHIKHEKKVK
# Test: Assay 1: CGT Enzymatic Assay (RapidFire/MS/MS, 0.01% Tween 80)
# Assay type: biochemical
# Conditions: Table 1, Compounds of Formula (I) and Formula (II); CGT enzymatic assay, C6-NBD-dihydro-galactosylceramide readout; read-out: IC50
row,IC50 [nM],Compound
1,< 1000,"Cc1ccc(N2C(=O)N(c3ccc(C#N)cc3)C(C)(C)C2(O)c2cccc(C#N)c2)cc1 (stereo not shown) [Compound 270, 3-(1-(4-cyanophenyl)-4-hydroxy-5,5-dimethyl-2-oxo-3-(p-tolyl)imidazolidin-4-yl)benzonitrile]"
2,< 1000,"CC(F)(F)c1cccc(C2(O)N(c3ccc(Cl)cc3)C(=O)N(c3ccc(Cl)cc3)C23COC3)c1 (stereo not shown) [Compound 271, 5,7-bis(4-chlorophenyl)-8-(3-(1,1-difluoroethyl)phenyl)-8-hydroxy-2-oxa-5,7-diazaspiro[3.4]octan-6-one]"
3,< 1000,"O=C1N(c2ccc(Cl)cc2)C2(COC2)C(O)(c2cccc(OC(F)F)c2)N1c1ccc(Cl)cc1 (stereo not shown) [Compound 272, 5,7-bis(4-chlorophenyl)-8-(3-(difluoromethoxy)phenyl)-8-hydroxy-2-oxa-5,7-diazaspiro[3.4]octan-6-one]"
4,< 1000,"CC1(C)N(c2ccc(Cl)cc2)C(=O)N(c2ccc(C#N)cc2)C1(O)c1cccc(OC(F)(F)F)c1 (stereo not shown) [Compound 273, 4-(3-(4-chlorophenyl)-5-hydroxy-4,4-dimethyl-2-oxo-5-(3-(trifluoromethoxy)phenyl)imidazolidin-1-yl)benzonitrile]"
5,< 1000,"N#Cc1ccc(N2C(=O)N(c3ccc(Cl)cc3)C3(COC3)C2(O)c2cccc(OC(F)(F)F)c2)cc1 (stereo not shown) [Compound 274, 4-(5-(4-chlorophenyl)-8-hydroxy-6-oxo-8-(3-(trifluoromethoxy)phenyl)-2-oxa-5,7-diazaspiro[3.4]octan-7-yl)benzonitrile]"
6,< 1000,"N#Cc1ccc(N2C(=O)N(c3ccc(C#N)cc3)C(O)(c3cccc(OC(F)(F)F)c3)C23COC3)cc1 (stereo not shown) [Compound 275, 4,4′-(8-hydroxy-6-oxo-8-(3-(trifluoromethoxy)phenyl)-2-oxa-5,7-diazaspiro[3.4]octane-5,7-diyl)dibenzonitrile]"
7,< 1000,"N#Cc1ccc(N2C(=O)N(c3ccc(Cl)cc3)C(O)(c3cccc(OC(F)(F)F)c3)C23COC3)cc1 (stereo not shown) [Compound 276, 4-(7-(4-chlorophenyl)-8-hydroxy-6-oxo-8-(3-(trifluoromethoxy)phenyl)-2-oxa-5,7-diazaspiro[3.4]octan-5-yl)benzonitrile]"
8,< 1000,"Cc1ccc(N2C(=O)N(c3ccc(C#N)cc3)C3(COC3)C2(O)c2cccc(OC(F)(F)F)c2)cc1 (stereo not shown) [Compound 277, 4-(8-hydroxy-6-oxo-7-(p-tolyl)-8-(3-(trifluoromethoxy)phenyl)-2-oxa-5,7-diazaspiro[3.4]octan-5-yl)benzonitrile]"
9,< 1000,"Cc1ccc(N2C(=O)N(c3ccc(C#N)cc3)C3(CCC3)C2(O)c2cccc(OC(F)(F)F)c2)cc1 (stereo not shown) [Compound 279, 4-(8-hydroxy-6-oxo-7-(p-tolyl)-8-(3-(trifluoromethoxy)phenyl)-5,7-diazaspiro[3.4]octan-5-yl)benzonitrile]"
10,< 1000,"Cc1ccc(N2C(=O)N(c3ccc(C#N)cc3)C(O)(c3cccc(OC(F)(F)F)c3)C23CCC3)cc1 (stereo not shown) [Compound 281, 4-(8-hydroxy-6-oxo-5-(p-tolyl)-8-(3-(trifluoromethoxy)phenyl)-5,7-diazaspiro[3.4]octan-7-yl)benzonitrile]"
11,< 1000,"Cc1ccc(N2C(=O)N(c3ccc(C#N)cc3)C(O)(c3cccc(C#N)c3)C23CCC3)cc1 (stereo not shown) [Compound 282, 3-(7-(4-cyanophenyl)-8-hydroxy-6-oxo-5-(p-tolyl)-5,7-diazaspiro[3.4]octan-8-yl)benzonitrile]"
12,< 1000,"Cc1ccc(N2C(=O)N(c3ccc(Cl)cc3)C(O)(c3cccc(C#N)c3)C23COC3)cc1 (stereo not shown) [Compound 283, 3-(7-(4-chlorophenyl)-8-hydroxy-6-oxo-5-(p-tolyl)-2-oxa-5,7-diazaspiro[3.4]octan-8-yl)benzonitrile]"
13,< 1000,"Cc1ccc(N2C(=O)N(c3ccc(C)cc3)C(O)(c3cccc(OC(F)(F)F)c3)C23COC3)cc1 (stereo not shown) [Compound 284, 8-hydroxy-5,7-di-p-tolyl-8-(3-(trifluoromethoxy)phenyl)-2-oxa-5,7-diazaspiro[3.4]octan-6-one]"
14,< 1000,"Cc1ccc(N2C(=O)N(c3ccc(C)cc3)C(O)(c3cccc(C(F)F)c3)C23COC3)cc1 (stereo not shown) [Compound 285, 8-(3-(difluoromethyl)phenyl)-8-hydroxy-5,7-di-p-tolyl-2-oxa-5,7-diazaspiro[3.4]octan-6-one]"
15,< 1000,"Cc1ccc(N2C(=O)N(c3ccc(C)cc3)C(O)(c3cccc(C(C)(F)F)c3)C23COC3)cc1 (stereo not shown) [Compound 286, 8-(3-(1,1-difluoroethyl)phenyl)-8-hydroxy-5,7-di-p-tolyl-2-oxa-5,7-diazaspiro[3.4]octan-6-one]"
16,< 1000,"Cc1ccc(N2C(=O)N(c3ccc(C)cc3)C(O)(c3cccc(C#N)c3)C23COC3)cc1 (stereo not shown) [Compound 287, 3-(8-hydroxy-6-oxo-5,7-di-p-tolyl-2-oxa-5,7-diazaspiro[3.4]octan-8-yl)benzonitrile]"
17,< 1000,"N#Cc1ccc(N2C(=O)N(c3ccc(Cl)cc3)C3(CCC3)C2(O)c2cccc(OC(F)(F)F)c2)cc1 (stereo not shown) [Compound 288, 4-(5-(4-chlorophenyl)-8-hydroxy-6-oxo-8-(3-(trifluoromethoxy)phenyl)-5,7-diazaspiro[3.4]octan-7-yl)benzonitrile]"
18,< 1000,"N#Cc1ccc(N2C(=O)N(c3ccc(Cl)cc3)C3(CCC3)C2(O)c2cccc(C#N)c2)cc1 (stereo not shown) [Compound 289, 3-(5-(4-chlorophenyl)-7-(4-cyanophenyl)-8-hydroxy-6-oxo-5,7-diazaspiro[3.4]octan-8-yl)benzonitrile]"
19,< 1000,"Cc1ccc(N2C(=O)N(c3ccc(C)cc3)C(O)(c3cccc(OC(F)F)c3)C23COC3)cc1 (stereo not shown) [Compound 290, 8-(3-(difluoromethoxy)phenyl)-8-hydroxy-5,7-di-p-tolyl-2-oxa-5,7-diazaspiro[3.4]octan-6-one]"
20,< 1000,"CCCC1(C)N(c2ccc(Cl)cc2)C(=O)N(c2ccc(Cl)cc2)C1(O)c1cccc(C#N)c1 (stereo not shown) [Compound 291, 3-(1,3-bis(4-chlorophenyl)-4-hydroxy-5-methyl-2-oxo-5-propylimidazolidin-4-yl)benzonitrile]"
21,< 1000,"N#Cc1ccc(N2C(=O)N(c3ccc(Br)cc3)C(O)(c3cccc(OC(F)(F)F)c3)C23CCC3)cc1 (stereo not shown) [Compound 292, 4-(7-(4-bromophenyl)-8-hydroxy-6-oxo-8-(3-(trifluoromethoxy)phenyl)-5,7-diazaspiro[3.4]octan-5-yl)benzonitrile]"
22,< 1000,"N#Cc1ccc(N2C(=O)N(c3ccc(C#N)cc3)C(O)(c3cccc(OC(F)(F)F)c3)C23CCC3)cc1 (stereo not shown) [Compound 293, 4,4′-(8-hydroxy-6-oxo-8-(3-(trifluoromethoxy)phenyl)-5,7-diazaspiro[3.4]octane-5,7-diyl)dibenzonitrile]"
23,< 1000,"N#Cc1ccc(N2C(=O)N(c3ccc(C#N)cc3)C(O)(c3cccc(C#N)c3)C23CCC3)cc1 (stereo not shown) [Compound 294, 4,4′-(8-(3-cyanophenyl)-8-hydroxy-6-oxo-5,7-diazaspiro[3.4]octane-5,7-diyl)dibenzonitrile]"
24,1000 to 10000,"COC[C@@]1(C)N(c2ccc(Cl)cc2)C(=O)N(c2ccc(Cl)cc2)[C@@]1(O)c1cccc(OC(F)(F)F)c1 [Compound 296-1, (4R,5R)-1,3-bis(4-chlorophenyl)-4-hydroxy-5-(methoxymethyl)-5-methyl-4-(3-(trifluoromethoxy)phenyl)imidazolidin-2-one]"
25,< 1000,"COC[C@]1(C)N(c2ccc(Cl)cc2)C(=O)N(c2ccc(Cl)cc2)[C@]1(O)c1cccc(OC(F)(F)F)c1 [Compound 296-2, (4S,5S)-1,3-bis(4-chlorophenyl)-4-hydroxy-5-(methoxymethyl)-5-methyl-4-(3-(trifluoromethoxy)phenyl)imidazolidin-2-one]"
26,1000 to 10000,"COC[C@]1(C)N(c2ccc(Cl)cc2)C(=O)N(c2ccc(Cl)cc2)[C@@]1(O)c1cccc(OC(F)(F)F)c1 [Compound 296-3, (4R,5S)-1,3-bis(4-chlorophenyl)-4-hydroxy-5-(methoxymethyl)-5-methyl-4-(3-(trifluoromethoxy)phenyl)imidazolidin-2-one]"
27,< 1000,"COC[C@@]1(C)N(c2ccc(Cl)cc2)C(=O)N(c2ccc(Cl)cc2)[C@]1(O)c1cccc(OC(F)(F)F)c1 [Compound 296-4, (4S,5R)-1,3-bis(4-chlorophenyl)-4-hydroxy-5-(methoxymethyl)-5-methyl-4-(3-(trifluoromethoxy)phenyl)imidazolidin-2-one]"
28,< 1000,"COCC1(C)N(c2ccc(Cl)cc2)C(=O)N(c2ccc(Cl)cc2)C1(O)c1cccc(C#N)c1 (stereo not shown) [Compound 297, 3-(1,3-bis(4-chlorophenyl)-4-hydroxy-5-(methoxymethyl)-5-methyl-2-oxoimidazolidin-4-yl)benzonitrile]"

row,Compound,IC50 [nM]
1,"Cc1ccc(N2C(=O)N(c3ccc(C#N)cc3)C3(COC3)C2(O)c2cccc(C#N)c2)cc1 (stereo not shown) [Compound 278, 3-(5-(4-cyanophenyl)-8-hydroxy-6-oxo-7-(p-tolyl)-2-oxa-5,7-diazaspiro[3.4]octan-8-yl)benzonitrile]",< 1000
2,"Cc1ccc(N2C(=O)N(c3ccc(C#N)cc3)C3(CCC3)C2(O)c2cccc(C#N)c2)cc1 (stereo not shown) [Compound 280, 3-(5-(4-cyanophenyl)-8-hydroxy-6-oxo-7-(p-tolyl)-5,7-diazaspiro[3.4]octan-8-yl)benzonitrile]",< 1000
3,"N#Cc1ccc(N2C(=O)N(c3ccc(Br)cc3)C(O)(c3cccc(C#N)c3)C23CCC3)cc1 (stereo not shown) [Compound 295, 3-(7-(4-bromophenyl)-5-(4-cyanophenyl)-8-hydroxy-6-oxo-5,7-diazaspiro[3.4]octan-8-yl)benzonitrile]",< 1000
